Measured values: patent publication US5326879A, “Indole derivatives” (priority 1991, dated 1994)
Read-outs that look alike come from different tables or passages of the source.

How the values were obtained:
H^+ /K^+ ATPase = target: T1, H^+ /K^+ ATPase (Sus scrofa, UniProt P19156); assay: H^+ /K^+ ATPase Inhibitory Activity Assay; format: biochemical, pig; details: for inhibition at 20 µg/mL: 20 μg/ml; for inhibition at 10 µg/mL / inhibition at 5 µg/mL: read-out: H^+ /K^+ ATPase % Inhibition
T1 construct: prepared from the stomach of pig; from tissue; host or cells: stomach of pig
T1 sequence (P19156 2-1034 limits assumed): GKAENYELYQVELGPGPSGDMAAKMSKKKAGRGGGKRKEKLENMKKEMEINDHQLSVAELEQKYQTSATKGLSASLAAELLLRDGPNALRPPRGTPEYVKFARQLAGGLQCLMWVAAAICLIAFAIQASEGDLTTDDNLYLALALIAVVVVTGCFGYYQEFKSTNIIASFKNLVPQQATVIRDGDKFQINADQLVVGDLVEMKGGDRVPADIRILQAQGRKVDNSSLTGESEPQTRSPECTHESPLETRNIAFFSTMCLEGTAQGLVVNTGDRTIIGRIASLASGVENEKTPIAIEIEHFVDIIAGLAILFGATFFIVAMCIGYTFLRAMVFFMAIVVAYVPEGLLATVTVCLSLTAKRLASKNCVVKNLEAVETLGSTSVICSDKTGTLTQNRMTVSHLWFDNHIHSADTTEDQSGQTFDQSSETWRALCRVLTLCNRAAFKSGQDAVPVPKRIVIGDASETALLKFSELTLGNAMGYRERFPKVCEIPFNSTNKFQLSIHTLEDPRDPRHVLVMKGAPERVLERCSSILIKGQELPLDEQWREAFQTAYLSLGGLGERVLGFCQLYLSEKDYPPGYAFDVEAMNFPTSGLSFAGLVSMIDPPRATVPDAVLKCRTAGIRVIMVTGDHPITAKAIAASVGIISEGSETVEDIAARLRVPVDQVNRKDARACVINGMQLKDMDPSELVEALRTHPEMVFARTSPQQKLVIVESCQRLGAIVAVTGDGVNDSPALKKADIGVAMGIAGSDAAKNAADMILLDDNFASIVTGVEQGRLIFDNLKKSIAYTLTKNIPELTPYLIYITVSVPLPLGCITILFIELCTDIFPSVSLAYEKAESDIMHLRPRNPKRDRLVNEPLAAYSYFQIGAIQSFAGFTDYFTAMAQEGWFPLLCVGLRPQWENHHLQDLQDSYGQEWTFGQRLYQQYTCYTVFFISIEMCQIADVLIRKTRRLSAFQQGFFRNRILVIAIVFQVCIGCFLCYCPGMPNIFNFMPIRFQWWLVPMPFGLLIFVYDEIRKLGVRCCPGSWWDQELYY
T1 sequence (P18434 whole entry partner): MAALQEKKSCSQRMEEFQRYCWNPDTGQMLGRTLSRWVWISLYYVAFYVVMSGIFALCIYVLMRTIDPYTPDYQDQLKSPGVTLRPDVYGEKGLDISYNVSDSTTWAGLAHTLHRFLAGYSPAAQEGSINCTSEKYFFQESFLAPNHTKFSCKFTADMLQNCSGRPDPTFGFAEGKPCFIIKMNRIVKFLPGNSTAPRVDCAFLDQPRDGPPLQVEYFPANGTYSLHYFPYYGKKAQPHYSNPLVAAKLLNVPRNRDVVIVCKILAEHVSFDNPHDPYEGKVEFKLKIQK
Protocol: The inhibitory activity was determined in the following manner using H^+ /K^+ ATPase prepared from the stomach of pig.
H^+ /K^+ ATPase dilute solution (100 μl, 50 μg as protein) was added to PIPES-tris (pH 6.2) buffer solution (440 μl) containing 4 mM magnesium chloride and 20 mM potassium chloride. Further, 0.1% ethanol solution of nigericin (5 μl) was added. To the solution was added dimethyl sulfoxide (5 μl) and the mixture was incubated at 37° C. for 30 minutes. Then 10 mM PIPES-tris buffer solution (450 μl) containing 4 mM ATP disodium was added to initiate the reaction. 30 minutes later, 50% trichloroacetic acid (1 ml) was added to cease the reaction. […] On the other hand, a similar determination was carried out in the absence of potassium chloride, at which the reading of the absorbance is taken as C2. […] In that case, the readings of the absorbance in the presence and absence of potassium chloride are taken as T1 and T2, respectively.
% Inhibition (I) of the inhibiting substance (test compound) is calculated by the following equation.

[1] = background statement; cited from earlier work

SMILES	inhibition at 20 µg/mL (H^+ /K^+ ATPase)	inhibition at 10 µg/mL (H^+ /K^+ ATPase; 10 μg/ml)	also measured
c1ccc2c(CCN3CCCCC3)c(CCCCCCc3[nH]c4ccccc4c3CCN3CCCCC3)[nH]c2c1 [Example 1, 3,3'-Di(2-piperidinoethyl)-2,2'-hexamethylenediindole]	5%		
c1ccc2[nH]c(CCCCCCc3[nH]c4ccccc4c3CCN3CCCCC3)cc2c1 [Example 2, 3-(2-Piperidinoethyl)-2,2'-hexamethylenediindole]		84%	
c1ccc(CCNCCc2c(CCCCc3cc4ccccc4[nH]3)[nH]c3ccccc23)cc1 [Example 3, 3-(2-Phenethylaminoethyl)-2,2'-tetramethylenediindole]		97%	
c1ccc2[nH]c(CCCCCCCCc3[nH]c4ccccc4c3CCN3CCCCC3)cc2c1 [Example 4, 3-(2-Piperidinoethyl)-2,2'-octamethylenediindole]		91%	
c1ccc2[nH]c(CCCCc3[nH]c4ccccc4c3CCN3CCOCC3)cc2c1 [Example 5, 3-(2-Morpholinoethyl)-2,2'-tetramethylenediindole]	68%		
c1ccc(CNCCc2c(CCCCc3[nH]c4ccccc4c3CCNCc3ccccc3)[nH]c3ccccc23)cc1 [Example 7, 3,3'-Di(2-benzylaminoethyl)-2,2'-tetramethylenediindole]	76%		
c1ccc(CNCCc2c(CCCCc3cc4ccccc4[nH]3)[nH]c3ccccc23)cc1 [Example 8, 3-(2-Benzylaminoethyl)-2,2'-tetramethylenediindole]	100%		
c1ccc(CCNCCc2c(CCCCc3[nH]c4ccccc4c3CCNCCc3ccccc3)[nH]c3ccccc23)cc1 [Example 13, 3,3'-Di(2-phenethylaminoethyl)-2,2'-tetramethylenediindole]			inhibition at 5 µg/mL (H^+ /K^+ ATPase; 5 μg/ml): 74%
c1ccc2[nH]c(CCCCc3[nH]c4ccccc4c3CCNCCc3c[nH]c4ccccc34)cc2c1 [Example 16, 3-(2-(2-(3-Indolyl)ethylamino)ethyl)-2,2'-tetramethylenediindole]			inhibition at 5 µg/mL (H^+ /K^+ ATPase; 5 μg/ml): 71%
CN(CCc1c(CCCCc2[nH]c3ccccc3c2CCN(C)Cc2ccccc2)[nH]c2ccccc12)Cc1ccccc1 [Example 17, 3,3'-Di(2-(N-methylbenzylamino)ethyl)-2,2'-tetramethylenediindole]			inhibition at 5 µg/mL (H^+ /K^+ ATPase): 38%
CN(CCc1c(CCCCc2cc3ccccc3[nH]2)[nH]c2ccccc12)Cc1ccccc1 [Example 18, 3-(2-(N-Methylbenzylamino)ethyl)-2,2'-tetramethylenediindole]			inhibition at 10 µg/mL (H^+ /K^+ ATPase): 100%
c1ccc(CCCNCCc2c(CCCCc3[nH]c4ccccc4c3CCNCCCc3ccccc3)[nH]c3ccccc23)cc1 [Example 19, 3,3'-Di(2-(3-phenylpropylamino)ethyl)-2,2'-tetramethylenediindole]		98%	
COc1ccc2[nH]c([S+]([O-])Cc3ncc(C)c(OC)c3C)nc2c1 (stereo not shown) [Omeprazole, omeprazole]			occurrence of side effect (omeprazole) [1]: occurrence of carcinoid
